# According to patent US20250120967A1, “TYROSINE KINASES INHIBITORS AND USES THEREOF” (GREAT NOVEL THERAPEUTICS BIOTECH & MEDICALS CORPORATION, priority 2023, published 2025):
# Where two headings read alike, the source gives them in different places.
# Legend:
# CT-26 cells = assay: In vitro cytotoxicity assay (MTT, 72 h); type: cell-based, murine; details: Mus musculus, CT26, growth inhibition
# Method: Six different cell lines were used, including human breast cancer cell lines MDA-MB-231 (6×10^3) and MDA-MB-453 (2.4×10^4), human colorectal cell line SW48 (2.4×10^4), human breast epithelial cell line M10 (6×10^3), human cancer cell line A549 (1.4×10^3), and murine colorectal carcinoma tumors CT26 (6×10^3), which were seeded in a 96-well plate. […] After 72 h, MTT assay (Cayman™) was used to determine the cellular viability.
# BTK = BTK (Homo sapiens, UniProt Q06187); assay: Tyrosine kinase inhibition assay; type: biochemical; details: for IC50: read-out: IC50 of compound; for inhibition at 1 µM: single concentration 1.0 μM, read-out: percent inhibition
# Method: (§1) Tyrosine kinase inhibition assays were performed at ThermoFisher Life Technologies (Madison, WI, USA) using standard protocols (SelectScreen Biochemical Profiling Service, Thermo Fisher Scientific). ATP concentrations used were at the apparent Km. Test compounds were screened in 1% dimethylsulffoxide (DMSO) (final concentration) in the well. For 10-point titrations, 3-fold serial dilutions were conducted from the starting concentration of […]. All Peptide/Kinase Mixtures were diluted to a 2× working concentration in the appropriate Kinase Buffer. All ATP Solutions were diluted to a 4× working concentration in Kinase Buffer (50 mM HEPES pH 7.5, 0.01% BRIJ-35, 10 mM MgCl2, 1 mM EGTA). The apparent ATP Km was previously determined using a Z′-LYTE assay. The Development Reagent was diluted in Development Buffer.
# (§2) The inhibition activities of compounds were determined in biochemical assays using single concentration (1.0 μM) measurements. The results were provided as percent inhibition values. A compound displaying a percent inhibition value of greater 80% was defined as a hit. 99 different tyrosine kinases were used.
# EPHA2 = EPHA2 (Homo sapiens, UniProt P29317); assay: Tyrosine kinase inhibition assay; type: biochemical; details: for IC50: read-out: IC50 of compound; for inhibition at 1 µM: single concentration 1.0 μM, read-out: percent inhibition
# Method: as §1, §2
# FER = FER (Homo sapiens, UniProt P16591); assay: Tyrosine kinase inhibition assay; type: biochemical; details: for IC50: read-out: IC50 of compound; for inhibition at 1 µM: single concentration 1.0 μM, read-out: percent inhibition
# Sequence of FER (P16591 whole entry): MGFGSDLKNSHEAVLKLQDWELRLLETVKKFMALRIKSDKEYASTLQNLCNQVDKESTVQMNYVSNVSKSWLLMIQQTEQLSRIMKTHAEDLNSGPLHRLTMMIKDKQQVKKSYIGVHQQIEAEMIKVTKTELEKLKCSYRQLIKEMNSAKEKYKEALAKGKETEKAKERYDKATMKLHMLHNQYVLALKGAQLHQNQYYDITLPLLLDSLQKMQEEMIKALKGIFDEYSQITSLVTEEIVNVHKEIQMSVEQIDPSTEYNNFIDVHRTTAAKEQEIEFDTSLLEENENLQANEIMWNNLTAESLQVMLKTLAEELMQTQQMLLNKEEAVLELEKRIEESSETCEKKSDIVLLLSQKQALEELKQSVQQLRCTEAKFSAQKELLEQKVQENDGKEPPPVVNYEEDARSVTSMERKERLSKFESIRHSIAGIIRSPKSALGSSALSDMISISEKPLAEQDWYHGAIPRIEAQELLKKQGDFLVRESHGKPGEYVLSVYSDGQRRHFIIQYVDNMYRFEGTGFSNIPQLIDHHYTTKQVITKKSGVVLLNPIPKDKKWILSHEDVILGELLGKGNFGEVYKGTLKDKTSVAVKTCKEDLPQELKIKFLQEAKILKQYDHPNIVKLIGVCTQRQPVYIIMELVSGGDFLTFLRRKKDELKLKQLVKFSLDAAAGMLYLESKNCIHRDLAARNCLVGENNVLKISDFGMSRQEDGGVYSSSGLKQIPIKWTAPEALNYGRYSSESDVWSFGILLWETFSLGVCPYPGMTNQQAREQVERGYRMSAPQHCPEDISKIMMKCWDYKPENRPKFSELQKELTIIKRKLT
# Method: as §1, §2
# FGR = FGR (Homo sapiens, UniProt P09769); assay: Tyrosine kinase inhibition assay; type: biochemical; details: for IC50: read-out: IC50 of compound; for inhibition at 1 µM: single concentration 1.0 μM, read-out: percent inhibition
# Sequence of FGR (P09769 whole entry): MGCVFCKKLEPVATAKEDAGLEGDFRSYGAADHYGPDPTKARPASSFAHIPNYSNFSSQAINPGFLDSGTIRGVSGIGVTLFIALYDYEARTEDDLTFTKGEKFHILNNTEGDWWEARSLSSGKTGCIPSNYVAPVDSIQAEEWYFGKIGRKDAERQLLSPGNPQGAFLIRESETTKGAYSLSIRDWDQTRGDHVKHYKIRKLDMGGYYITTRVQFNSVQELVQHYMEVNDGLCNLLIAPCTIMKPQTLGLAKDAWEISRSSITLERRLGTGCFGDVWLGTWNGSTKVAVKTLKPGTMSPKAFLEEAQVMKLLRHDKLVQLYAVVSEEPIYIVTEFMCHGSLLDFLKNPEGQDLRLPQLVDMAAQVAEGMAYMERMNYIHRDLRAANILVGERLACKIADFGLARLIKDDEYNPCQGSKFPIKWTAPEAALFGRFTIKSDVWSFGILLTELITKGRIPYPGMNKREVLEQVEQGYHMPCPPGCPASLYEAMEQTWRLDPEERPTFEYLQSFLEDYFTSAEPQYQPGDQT
# Method: as §1, §2
# FLT4 (VEGFR3) = FLT4 (VEGFR3) (Homo sapiens, UniProt P35916); assay: Tyrosine kinase inhibition assay; type: biochemical; details: for IC50: read-out: IC50 of compound; for inhibition at 1 µM: single concentration 1.0 μM, read-out: percent inhibition
# Method: as §1, §2
# HCK = HCK (Homo sapiens, UniProt P08631); assay: Tyrosine kinase inhibition assay; type: biochemical; details: for IC50: read-out: IC50 of compound; for inhibition at 1 µM: single concentration 1.0 μM, read-out: percent inhibition
# Sequence of HCK (P08631 whole entry): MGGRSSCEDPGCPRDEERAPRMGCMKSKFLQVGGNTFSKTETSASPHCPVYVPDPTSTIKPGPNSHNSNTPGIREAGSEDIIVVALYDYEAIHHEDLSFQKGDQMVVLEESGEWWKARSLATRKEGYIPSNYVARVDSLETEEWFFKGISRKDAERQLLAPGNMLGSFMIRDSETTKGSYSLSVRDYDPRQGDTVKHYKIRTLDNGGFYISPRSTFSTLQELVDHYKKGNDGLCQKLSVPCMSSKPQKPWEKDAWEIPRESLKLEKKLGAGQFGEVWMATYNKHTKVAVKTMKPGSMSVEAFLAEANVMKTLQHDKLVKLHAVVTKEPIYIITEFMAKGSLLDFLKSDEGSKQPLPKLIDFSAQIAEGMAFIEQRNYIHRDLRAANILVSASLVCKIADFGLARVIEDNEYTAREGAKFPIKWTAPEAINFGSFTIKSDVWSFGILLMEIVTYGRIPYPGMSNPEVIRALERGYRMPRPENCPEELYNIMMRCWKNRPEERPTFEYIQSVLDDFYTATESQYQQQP
# Method: as §1, §2
# INSRR (IRR) = INSRR (IRR) (Homo sapiens, UniProt P14616); assay: Tyrosine kinase inhibition assay; type: biochemical; details: for IC50: read-out: IC50 of compound; for inhibition at 1 µM: single concentration 1.0 μM, read-out: percent inhibition
# Method: as §1, §2
# LCK = LCK (Homo sapiens, UniProt P06239); assay: Tyrosine kinase inhibition assay; type: biochemical; details: for IC50: read-out: IC50 of compound; for inhibition at 1 µM: single concentration 1.0 μM, read-out: percent inhibition
# Method: as §1, §2
# LYN A = LYN A (Homo sapiens, UniProt P07948); assay: Tyrosine kinase inhibition assay; type: biochemical; details: for IC50: read-out: IC50 of compound; for inhibition at 1 µM: single concentration 1.0 μM, read-out: percent inhibition
# Method: as §1, §2
# LYN B = LYN B (Homo sapiens, UniProt P07948); assay: Tyrosine kinase inhibition assay; type: biochemical; details: for inhibition at 1 µM: single concentration 1.0 μM, read-out: percent inhibition
# Method: as §1, §2
# NTRK2 (TRKB) = NTRK2 (TRKB) (Homo sapiens, UniProt Q16620); assay: Tyrosine kinase inhibition assay; type: biochemical; details: for inhibition at 1 µM: single concentration 1.0 μM, read-out: percent inhibition
# Method: as §1, §2
# PDGFRA (PDGFR alpha) = PDGFRA (PDGFR alpha) (Homo sapiens, UniProt P16234); assay: Tyrosine kinase inhibition assay; type: biochemical; details: for IC50: read-out: IC50 of compound; for inhibition at 1 µM: single concentration 1.0 μM, read-out: percent inhibition
# Method: as §1, §2
# ROS1 = ROS1 (Homo sapiens, UniProt P08922); assay: Tyrosine kinase inhibition assay; type: biochemical; details: for IC50: read-out: IC50 of compound; for inhibition at 1 µM: single concentration 1.0 μM, read-out: percent inhibition
# Sequence of ROS1 (P08922 28-2347): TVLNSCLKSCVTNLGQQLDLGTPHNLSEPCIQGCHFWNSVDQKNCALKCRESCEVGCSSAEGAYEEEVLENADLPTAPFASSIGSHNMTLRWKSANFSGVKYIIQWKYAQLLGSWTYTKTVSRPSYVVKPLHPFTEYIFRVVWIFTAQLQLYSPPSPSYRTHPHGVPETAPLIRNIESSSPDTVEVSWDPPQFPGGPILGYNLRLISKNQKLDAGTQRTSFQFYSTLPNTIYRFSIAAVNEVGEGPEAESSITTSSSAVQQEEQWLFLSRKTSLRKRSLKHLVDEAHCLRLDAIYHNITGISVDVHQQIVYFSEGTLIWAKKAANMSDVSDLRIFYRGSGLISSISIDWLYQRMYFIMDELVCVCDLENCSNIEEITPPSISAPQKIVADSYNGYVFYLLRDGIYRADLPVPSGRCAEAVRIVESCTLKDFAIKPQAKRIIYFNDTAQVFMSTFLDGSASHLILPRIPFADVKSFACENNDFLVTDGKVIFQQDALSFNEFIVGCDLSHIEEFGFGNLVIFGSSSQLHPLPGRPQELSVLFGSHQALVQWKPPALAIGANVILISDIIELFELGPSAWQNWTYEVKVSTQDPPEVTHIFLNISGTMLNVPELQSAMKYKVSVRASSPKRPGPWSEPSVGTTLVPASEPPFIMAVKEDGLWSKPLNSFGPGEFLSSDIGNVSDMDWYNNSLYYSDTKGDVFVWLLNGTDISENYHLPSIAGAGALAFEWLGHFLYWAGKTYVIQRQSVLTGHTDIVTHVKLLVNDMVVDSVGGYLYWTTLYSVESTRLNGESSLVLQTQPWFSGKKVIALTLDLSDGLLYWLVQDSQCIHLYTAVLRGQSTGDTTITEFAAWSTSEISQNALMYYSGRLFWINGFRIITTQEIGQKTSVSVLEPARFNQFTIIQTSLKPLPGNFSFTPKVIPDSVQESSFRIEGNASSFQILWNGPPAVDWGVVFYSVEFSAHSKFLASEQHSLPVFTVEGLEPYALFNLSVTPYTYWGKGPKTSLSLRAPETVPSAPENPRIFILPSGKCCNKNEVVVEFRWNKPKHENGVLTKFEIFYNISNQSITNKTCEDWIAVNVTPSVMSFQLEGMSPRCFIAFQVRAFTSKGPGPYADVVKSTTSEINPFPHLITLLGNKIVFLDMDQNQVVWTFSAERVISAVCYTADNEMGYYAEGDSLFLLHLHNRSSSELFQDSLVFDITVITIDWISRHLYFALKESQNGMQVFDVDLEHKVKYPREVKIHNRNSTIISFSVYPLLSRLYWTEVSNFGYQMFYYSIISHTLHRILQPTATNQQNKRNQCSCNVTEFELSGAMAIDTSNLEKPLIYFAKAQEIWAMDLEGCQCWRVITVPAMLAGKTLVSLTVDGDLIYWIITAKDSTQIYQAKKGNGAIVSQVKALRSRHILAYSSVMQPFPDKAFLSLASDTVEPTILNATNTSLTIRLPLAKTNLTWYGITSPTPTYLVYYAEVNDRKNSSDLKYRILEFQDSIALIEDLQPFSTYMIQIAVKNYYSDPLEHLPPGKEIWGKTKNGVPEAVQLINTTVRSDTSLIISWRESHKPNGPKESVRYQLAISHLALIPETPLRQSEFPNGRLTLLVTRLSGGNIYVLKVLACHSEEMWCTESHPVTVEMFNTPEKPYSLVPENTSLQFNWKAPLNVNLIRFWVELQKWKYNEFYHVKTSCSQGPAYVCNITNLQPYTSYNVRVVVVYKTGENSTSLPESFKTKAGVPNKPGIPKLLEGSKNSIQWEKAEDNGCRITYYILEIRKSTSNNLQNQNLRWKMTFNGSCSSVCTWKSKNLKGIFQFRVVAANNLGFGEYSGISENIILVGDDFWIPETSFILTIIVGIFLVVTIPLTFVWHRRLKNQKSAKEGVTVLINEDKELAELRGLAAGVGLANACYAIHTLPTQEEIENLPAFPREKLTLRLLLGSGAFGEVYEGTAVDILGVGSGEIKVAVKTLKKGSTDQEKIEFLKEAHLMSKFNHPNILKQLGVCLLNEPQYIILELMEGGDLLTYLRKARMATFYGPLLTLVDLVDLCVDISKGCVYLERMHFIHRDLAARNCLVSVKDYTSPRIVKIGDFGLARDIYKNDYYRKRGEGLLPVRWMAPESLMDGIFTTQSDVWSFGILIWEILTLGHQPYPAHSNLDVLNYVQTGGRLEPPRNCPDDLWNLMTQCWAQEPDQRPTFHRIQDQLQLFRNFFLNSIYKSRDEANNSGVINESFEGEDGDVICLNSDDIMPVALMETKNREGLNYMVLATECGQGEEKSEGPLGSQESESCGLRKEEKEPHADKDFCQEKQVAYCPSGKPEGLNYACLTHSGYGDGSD
# Method: as §1, §2
# SRC = SRC (Homo sapiens, UniProt P12931); assay: Tyrosine kinase inhibition assay; type: biochemical; details: for IC50: read-out: IC50 of compound; for inhibition at 1 µM: single concentration 1.0 μM, read-out: percent inhibition
# Sequence of SRC (P12931 whole entry): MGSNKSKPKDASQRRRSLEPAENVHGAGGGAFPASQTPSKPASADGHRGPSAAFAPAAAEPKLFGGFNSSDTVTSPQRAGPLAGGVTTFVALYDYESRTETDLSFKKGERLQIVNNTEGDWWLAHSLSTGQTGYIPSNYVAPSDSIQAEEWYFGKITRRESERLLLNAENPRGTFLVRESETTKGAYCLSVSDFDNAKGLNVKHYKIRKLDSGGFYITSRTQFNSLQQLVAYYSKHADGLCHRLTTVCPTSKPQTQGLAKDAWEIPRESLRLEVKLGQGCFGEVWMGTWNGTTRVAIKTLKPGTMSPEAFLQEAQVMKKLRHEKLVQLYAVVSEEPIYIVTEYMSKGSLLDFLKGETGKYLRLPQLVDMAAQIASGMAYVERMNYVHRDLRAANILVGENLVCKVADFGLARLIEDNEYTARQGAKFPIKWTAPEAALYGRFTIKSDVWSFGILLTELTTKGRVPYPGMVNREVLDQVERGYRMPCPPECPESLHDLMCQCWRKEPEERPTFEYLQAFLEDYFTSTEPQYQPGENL
# Method: as §1, §2
# FRK (PTK5) = FRK (PTK5) (Homo sapiens, UniProt P42685); assay: Tyrosine kinase inhibition assay; type: biochemical; details: for inhibition at 1 µM: single concentration 1.0 μM, read-out: percent inhibition; for IC50: read-out: IC50 of compound
# Method: as §1
# (§3) The inhibition activities of compounds were determined in biochemical assays using single concentration (1.0 μM) measurements. The results were provided as percent inhibition values.
# RET = RET (Homo sapiens, UniProt P07949); assay: Tyrosine kinase inhibition assay; type: biochemical; details: for inhibition at 1 µM: single concentration 1.0 μM, read-out: percent inhibition
# Method: as §1, §3
# [1] = LYN B, read-out: IC50 of compound
# [2] = NTRK2 (TRKB), read-out: IC50 of compound
SMILES,IC50 (CT-26 cells) [nM],IC50 (BTK) [nM],inhibition at 1 µM (BTK) [%],IC50 (EPHA2) [nM],inhibition at 1 µM (EPHA2) [%],IC50 (FER) [nM],inhibition at 1 µM (FER) [%],inhibition at 1 µM (FGR) [%],inhibition at 1 µM (FLT4 (VEGFR3)) [%],inhibition at 1 µM (HCK) [%],inhibition at 1 µM (INSRR (IRR)) [%],inhibition at 1 µM (LCK) [%],inhibition at 1 µM (LYN A) [%],inhibition at 1 µM (LYN B; LYN B) [%],inhibition at 1 µM (NTRK2 (TRKB); NTRK2 (TRKB)) [%],inhibition at 1 µM (PDGFRA (PDGFR alpha)) [%],inhibition at 1 µM (ROS1) [%],inhibition at 1 µM (SRC) [%],inhibition at 1 µM (FRK (PTK5)) [%],inhibition at 1 µM (RET) [%],also measured
"COc1cc2nccc(Oc3ccc(NC(=O)C4(C(=O)Nc5ccc(F)cc5)CC4)cc3)c2cc1OC [Cabozantinib, reference compound]",19600 ± 4300,172,82,37.7,95,424,89,97,95,90,38,95,92,91,95,92,87,89,99,98,IC50 (FGR): 88.8 nM; IC50 (FLT4 (VEGFR3)): 30.3 nM; IC50 (HCK): 111 nM; IC50 (INSRR (IRR)): 386 nM; IC50 (LCK): 38.1 nM; IC50 (LYN A): 217 nM; IC50 (LYN B): 67.7 nM; IC50 (NTRK2 (TRKB)): 53.3 nM; IC50 (PDGFRA (PDGFR alpha)): 84.1 nM; IC50 (ROS1): 60.6 nM; IC50 (SRC): 141 nM
"COc1cc2nccc(Oc3ccc(NC(=O)C4(NC(=O)c5ccc(F)cc5)CC4)cc3F)c2cc1OC [Cbo-02, N-(1-((4-((6,7-diMethoxyquinolin-4-yl)oxy)-3-fluorophenyl)carbamoyl)cyclopropyl)-4-fluorobenzamide]",8200 ± 600,–,98,–,33,–,88,74,79,62,80,85,71,81,23,48,56,42,59,67,–
COc1cc2nccc(Oc3ccc(NC(=O)C4(NC(=O)c5ccc(F)cc5)CC4)cc3F)c2cc1Oc1ccc(N)cc1F [Cbo-10],5010 ± 160,–,102,–,56,–,97,92,92,72,93,96,81,86,73,84,95,86,91,79,–
COc1cc2nccc(Oc3ccc(NC(=O)C4(NC(=O)c5ccc(F)cc5)CC4)cc3F)c2cc1Oc1c(F)cc(N)cc1F [Cbo-14],4900 ± 110,–,101,–,61,–,99,92,92,74,93,97,86,87,88,94,97,86,100,89,–
COc1cc2nccc(Oc3ccc(NC(=O)C4(C(=O)Nc5ccc(F)cc5)CC4)cc3F)c2cc1Oc1ccc(N)cc1F [Cbo-23],5180 ± 1730,9.01,101,20.9,102,24.7,101,97,99,99,97,99,92,96,112,95,100,94,99,101,IC50 (FGR): 25.3 nM; IC50 (FLT4 (VEGFR3)): 20.8 nM; IC50 (HCK): 21.4 nM; IC50 (INSRR (IRR)): 53.4 nM; IC50 (LCK): 15.9 nM; IC50 (LYN A): 53.1 nM; IC50 (LYN B; [1]): 18.8 nM; IC50 (NTRK2 (TRKB); [2]): 14.8 nM; IC50 (PDGFRA (PDGFR alpha)): 36.9 nM; IC50 (ROS1): 5.87 nM; IC50 (SRC): 32.1 nM; IC50 (FRK (PTK5)): 27 nM
"CNC(=O)c1cc2c(Oc3ccc(NC(=O)C4(C(=O)Nc5ccc(F)cc5)CC4)cc3)ccnc2cc1OC [Zanzalintinib, reference compound]",22000 ± 290,111,–,52.2,–,266,–,–,–,–,–,–,–,–,–,–,–,–,–,–,IC50 (FGR): 35.4 nM; IC50 (FLT4 (VEGFR3)): 21.7 nM; IC50 (HCK): 59 nM; IC50 (INSRR (IRR)): 302 nM; IC50 (LCK): 7.07 nM; IC50 (LYN A): 70.9 nM; IC50 (LYN B; [1]): 30.7 nM; IC50 (NTRK2 (TRKB); [2]): 112 nM; IC50 (PDGFRA (PDGFR alpha)): 93.9 nM; IC50 (ROS1): 71.4 nM; IC50 (SRC): 45.1 nM; IC50 (FRK (PTK5)): 10.3 nM; IC50 (RET; read-out: IC50 of compound): 22.5 nM
